US11235976B2, “Nanocarbon-iron composite system as well as composition, preparation method and use thereof” (Chongqing Lummy Pharmaceutical Co., LTD, priority 2017, dated 2022)

tested on: murine liver cancer H22 cells; assay: Cell experiment, cell survival rate; assay type: cell-based; details: iron preparation alone 1.71 μg/mL, 48 h
Protocol: (§1) Cells growing in a log phase are collected, the concentration of the cell suspension is adjusted, 100 μL of cell suspension is added to each well and the cells are plated (edge wells are filled with sterile PBS) at a density of 1×10^3-10^4 cells/well. The cells are incubated for 24 hours at 37° C. under the condition of 5% CO2, a nanocarbon-iron solution having a concentration gradient (nanocarbon content: 125, 62.5, 15.63 and 3.91 μg/mL; and ferric ion content: 13.65, 6.83, 1.71 and 0.43 μg/mL) is added, and three sub-wells are set. Then the cells are incubated for 48 hours at 37° C. under the condition of 5% CO2. 10 μL of CCK8 solution is added to each well and then the cells are continuously incubated for 2 hours. The absorbance of each well is measured at OD=450 nm with the microplate reader. In addition, a negative control group, nanocarbon control groups having the same concentration and iron preparation control groups having the same concentration are set.
as §1, with “and 1” for “100”, “of a 6-well plate” for “and the cells are plated (edge wells are filled with sterile PBS)”, “3×10^4” for “1×10^3-10^4”, “1.71,” for “1.71 and”, “The” for “10 μL of CCK8 solution is added to each well and then the”, “trypsinized and counted.” for “continuously incubated for 2 hours. The absorbance of each well is measured at OD=450 nm with the microplate reader.”

| Substance | Cell Survival Rate |
| --- | --- |
| ferrous sulfate | 95.24% |

same assay, conditions: iron preparation alone 6.83 μg/mL, 48 h

| Substance | Cell Survival Rate |
| --- | --- |
| ferrous sulfate | 97.16% |

same assay, conditions: iron preparation alone 13.65 μg/mL, 48 h

| Substance | Cell Survival Rate |
| --- | --- |
| ferrous sulfate | 100% |

tested on: HCT116 colon cancer cells; assay: Cell experiment, cell survival rate; assay type: cell-based; details: iron preparation alone 0.43 μg/mL, 48 h
Protocol: as §1
as §1, with “and 1” for “100”, “of a 6-well plate” for “and the cells are plated (edge wells are filled with sterile PBS)”, “3×10^4” for “1×10^3-10^4”, “1.71,” for “1.71 and”, “The” for “10 μL of CCK8 solution is added to each well and then the”, “trypsinized and counted.” for “continuously incubated for 2 hours. The absorbance of each well is measured at OD=450 nm with the microplate reader.”

| Substance | Cell Survival Rate |
| --- | --- |
| ferrous sulfate | 98.32% |

same assay, conditions: iron preparation alone 1.71 μg/mL, 48 h

| Substance | Cell Survival Rate |
| --- | --- |
| ferrous sulfate | 100% |

same assay, conditions: iron preparation alone 6.83 μg/mL, 48 h

| Substance | Cell Survival Rate |
| --- | --- |
| ferrous sulfate | 97.68% |

same assay, conditions: iron preparation alone 13.65 μg/mL, 48 h

| Substance | Cell Survival Rate |
| --- | --- |
| ferrous sulfate | 94.07% |

tested on: A549 lung cancer cells; assay: Cell experiment, cell survival rate; assay type: cell-based; details: iron preparation alone 0.43 μg/mL, 48 h
Protocol: as §1
as §1, with “and 1” for “100”, “of a 6-well plate” for “and the cells are plated (edge wells are filled with sterile PBS)”, “3×10^4” for “1×10^3-10^4”, “1.71,” for “1.71 and”, “The” for “10 μL of CCK8 solution is added to each well and then the”, “trypsinized and counted.” for “continuously incubated for 2 hours. The absorbance of each well is measured at OD=450 nm with the microplate reader.”

| Substance | Cell Survival Rate |
| --- | --- |
| ferrous sulfate | 100% |

same assay, conditions: iron preparation alone 1.71 μg/mL, 48 h

| Substance | Cell Survival Rate |
| --- | --- |
| ferrous sulfate | 94.18% |

same assay, conditions: iron preparation alone 6.83 μg/mL, 48 h

| Substance | Cell Survival Rate |
| --- | --- |
| ferrous sulfate | 95.12% |

same assay, conditions: iron preparation alone 13.65 μg/mL, 48 h

| Substance | Cell Survival Rate |
| --- | --- |
| ferrous sulfate | 100% |

tested on: TPC-1 thyroid cancer cells; assay: Cell experiment, cell survival rate; assay type: cell-based; details: iron preparation alone 0.43 μg/mL, 48 h
Protocol: as §1
as §1, with “and 1” for “100”, “of a 6-well plate” for “and the cells are plated (edge wells are filled with sterile PBS)”, “3×10^4” for “1×10^3-10^4”, “1.71,” for “1.71 and”, “The” for “10 μL of CCK8 solution is added to each well and then the”, “trypsinized and counted.” for “continuously incubated for 2 hours. The absorbance of each well is measured at OD=450 nm with the microplate reader.”

| Substance | Cell Survival Rate |
| --- | --- |
| ferrous sulfate | 100% |

same assay, conditions: iron preparation alone 1.71 μg/mL, 48 h

| Substance | Cell Survival Rate |
| --- | --- |
| ferrous sulfate | 100% |

same assay, conditions: iron preparation alone 6.83 μg/mL, 48 h

| Substance | Cell Survival Rate |
| --- | --- |
| ferrous sulfate | 98.75% |

same assay, conditions: iron preparation alone 13.65 μg/mL, 48 h

| Substance | Cell Survival Rate |
| --- | --- |
| ferrous sulfate | 93.64% |

tested on: MDA-MB-231 metastatic lymph nodes; assay: Lymph node metastasis inhibition experiment; assay type: in vivo, nude mouse; details: popliteal lymph nodes
Protocol: (§2) Cells growing in a log phase are collected, the concentration of the cell suspension is adjusted to 3×10^7 cells/mL, the cell suspension is inoculated subcutaneously into the left hind foot pads of each nude mouse at the inoculation volume of 0.05 mL (about 1.5×10^6 cells) and thus a lymph node metastasis mouse model is obtained. The mice are treated when the diameter of the tumor reaches 6-8 mm and there is no ulcer and necrosis. The mice are randomly divided into four groups (10 mice per group): a negative control group (0.9% sodium chloride injection), a nanocarbon control group, an iron preparation control group and a nanocarbon-iron suspension experimental group. 10 days after inoculation, the mice are killed, and popliteal lymph nodes are collected, weighed and fixed for pathological examination.

| Substance | Weight of Lymph Node |
| --- | --- |
| ferrous sulfate | 40.18 ± 11.14 mg |

tested on: HCT116 metastatic lymph nodes; assay: Lymph node metastasis inhibition experiment; assay type: in vivo, nude mouse; details: popliteal lymph nodes
Protocol: as §2

| Substance | Weight of Lymph Node |
| --- | --- |
| ferrous sulfate | 48.12 ± 10.58 mg |

tested on: TPC-1 metastatic lymph nodes; assay: Lymph node metastasis inhibition experiment; assay type: in vivo, nude mouse; details: popliteal lymph nodes
Protocol: as §2

| Substance | Weight of Lymph Node |
| --- | --- |
| ferrous sulfate | 35.71 ± 13.45 mg |

tested on: Hela metastatic lymph nodes; assay: Lymph node metastasis inhibition experiment; assay type: in vivo, nude mouse; details: popliteal lymph nodes
Protocol: as §2

| Substance | Weight of Lymph Node |
| --- | --- |
| ferrous sulfate | 29.48 ± 6.46 mg |

tested on: SKOV3 metastatic lymph nodes; assay: Lymph node metastasis inhibition experiment; assay type: in vivo, nude mouse; details: popliteal lymph nodes
Protocol: as §2

| Substance | Weight of Lymph Node |
| --- | --- |
| ferrous sulfate | 35.62 ± 6.94 mg |

tested on: A549 metastatic lymph nodes; assay: Lymph node metastasis inhibition experiment; assay type: in vivo, nude mouse; details: popliteal lymph nodes
Protocol: as §2

| Substance | Weight of Lymph Node |
| --- | --- |
| ferrous sulfate | 44.97 ± 16.53 mg |

tested on: SMMC-7721 metastatic lymph nodes; assay: Lymph node metastasis inhibition experiment; assay type: in vivo, nude mouse; details: popliteal lymph nodes
Protocol: as §2

| Substance | Weight of Lymph Node |
| --- | --- |
| ferrous sulfate | 50.19 ± 18.73 mg |

tested on: SGC-7901 metastatic lymph nodes; assay: Lymph node metastasis inhibition experiment; assay type: in vivo, nude mouse; details: popliteal lymph nodes
Protocol: as §2

| Substance | Weight of Lymph Node |
| --- | --- |
| ferrous sulfate | 50.12 ± 20.94 mg |

tested on: lymph node metastasis of 9 types of tumor cells; assay: Lymph node metastasis inhibition experiment, summary; assay type: in vivo, mice; details: not given
Protocol: as §2
Milky white and thick ascites is extracted from the H22 tumor-bearing mice, the concentration is adjusted to be 3×10^7 cells/mL, 0.05 mL of cell suspension (about 1.5×10^6 cells) is inoculated subcutaneously into the left hind foot pads of each Kunming mouse, and thus a lymph node metastasis mouse model is obtained. The mice are treated when the diameter of the tumor reaches 6-8 mm and there is no ulcer and necrosis. The mice are randomly divided into four groups (10 mice per group): a negative control group (0.9% sodium chloride injection), a nanocarbon control group, an iron preparation control group and a nanocarbon-iron suspension experimental group. 10 days after inoculation, the mice are killed, and popliteal lymph nodes are collected, weighed and fixed for pathological examination.

| Substance | inhibition effect on the metastatic lymph nodes |
| --- | --- |
| ferrous sulfate | do not have an inhibition effect |
